Consider 2 compounds from ChEMBL document CHEMBL3352360, “Two new spirooxindole alkaloids from rhizosphere strain Streptomyces sp. xzqh-9” (Bioorg Med Chem Lett, 2014).

Active and inactive are the calls of the source. The calls are words filed in the database; no cut-off is given here.

A short description of data set [1]: Retention factor of the compound on TLC over silica gel. It is filed as physicochemical.
The target in data set [2] is L-lactate dehydrogenase (Homo sapiens) (UniProt V9HWB9). As to the kind of experiment: Inhibition of LDH (unknown origin) at 10 uM by biochemical assay.
For a further data set, the system named is HepG2. As to the kind of experiment: Antiproliferative activity against human HepG2 cells assessed as inhibition of cell proliferation at 10 to 100 uM. It is filed as functional.
For a further data set, the system named is MCF7. The data set can be described thus: Antiproliferative activity against human MCF7 cells assessed as inhibition of cell proliferation at 10 to 100 uM. Type of data set: functional.
The next data set concerns BaF3. As to the kind of experiment: Inhibition of Bcr-Abl (unknown origin) expressed in BaF3 cells at 30 uM. It is filed as cell-based. The note with it: Homo sapiens.
Data set [3] is described as follows: Antiproliferative activity against human BGC823 cells assessed as inhibition of cell proliferation at 10 to 100 uM. Type of data set: functional, BGC-823.
The next data set relates to A549. As to the kind of experiment: Antiproliferative activity against human A549 cells assessed as inhibition of cell proliferation at 10 to 100 uM. It is filed as functional.

As usually defined, the inhibition is the share of the control response that was lost under treatment. In data set [1], `C[C@@H]1[C@@H](O)C(=O)C2=C(CCC2)[C@]12C(=O)N(C)c1ccccc12` registered a Rf of 0.8. The inhibition entry (in data set [2]; in the data set with BaF3) was “inactive” throughout. Moreover, the “inhibition (INH)” value (with HepG2; with MCF7; in data set [3]; in the data set with A549) was <10% each time.

For the compound `CC1=C(O)C(=O)C2=C(CCC2)[C@]12C(=O)N(C)c1ccccc12`, in data set [1], the Rf is on record as 0.67. In addition, the inhibition result in data set [2] was “inactive”. In addition, the “inhibition (INH)” value (with HepG2; in the data set with MCF7; in data set [3]; in the data set on A549) was <10% each time. In the data set with BaF3, this compound yielded an inhibition of 15%.
